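Assay format: 96-well plates, 48-hour exposure. TGI is the concentration that stops growth completely.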
Legend:
Test in all cases: inhibition of tumour cell growth, NCI panel, 48 h
[1] = system: 786-0 renal
[2] = system: A498 renal
[3] = system: A549 NSCLC
[4] = system: ACHN renal
[5] = system: CAKI-1 renal
[6] = system: CCRF-CEM leukemia
[7] = system: COLO 205 colon
[8] = system: DLD-1 colon
[9] = system: DMS 114 small cell lung
[10] = system: EKVX NSCLC
[11] = system: HCC-2998 colon
[12] = system: HCT-116 colon
[13] = system: HCT-15 colon
[14] = system: HL-60(TB) leukemia
[15] = system: HOP-62 NSCLC
[16] = system: HOP-92 NSCLC
[17] = system: HT29 colon
[18] = system: IGROV1 ovarian
[19] = system: K-562 leukemia
[20] = system: KM12 colon
[21] = system: KM20L2 colon
[22] = system: LOX IMVI melanoma
[23] = system: LXFL 529 NSCLC
[24] = system: M14 melanoma
[25] = system: M19-MEL melanoma
[26] = system: MALME-3M melanoma
[27] = system: MOLT-4 leukemia
[28] = system: NCI-H226 lung
[29] = system: NCI-H23 lung
[30] = system: NCI-H460 lung
[31] = system: OVCAR-3 ovarian
[32] = system: OVCAR-5 ovarian
[33] = system: OVCAR-8 ovarian
[34] = system: RPMI-8226 leukemia
[35] = system: RXF 393 renal
[36] = system: SF-268 CNS
[37] = system: SF-295 CNS
[38] = system: SF-539 CNS
[39] = system: SK-MEL-2 melanoma
[40] = system: SK-MEL-28 melanoma
[41] = system: SK-MEL-5 melanoma
[42] = system: SK-OV-3 ovarian
[43] = system: SN12C renal
[44] = system: SNB-75 CNS
[45] = system: SNB-78 CNS
[46] = system: SW-620 colon
[47] = system: TK-10 renal
[48] = system: U251 CNS
[49] = system: UACC-257 melanoma
[50] = system: UACC-62 melanoma
[51] = system: UO-31 renal
[52] = system: DMS 273 small cell lung
[53] = system: NCI-H522 lung
[54] = system: OVCAR-4 ovarian
[55] = system: SNB-19 CNS
[56] = system: SR leukemia

CN(C)c1ccc(/C=C(/C(=O)O)c2csc(-c3nc(/C(=C\c4ccc(N(C)C)cc4)C(=O)O)cs3)n2)cc1
TGI [1]: > 100 µM | TGI [2]: > 100 µM | TGI [3]: > 100 µM | TGI [4]: > 100 µM | TGI [5]: > 100 µM | TGI [6]: > 100 µM | TGI [7]: > 100 µM | TGI [8]: > 100 µM | TGI [9]: > 100 µM | TGI [10]: > 100 µM | TGI [11]: > 100 µM | TGI [12]: > 100 µM | TGI [13]: > 100 µM | TGI [14]: > 100 µM | TGI [15]: > 100 µM | TGI [16]: > 100 µM | TGI [17]: > 100 µM | TGI [18]: > 100 µM | TGI [19]: > 100 µM | TGI [20]: > 100 µM | TGI [21]: > 100 µM | TGI [22]: > 100 µM | TGI [23]: > 100 µM | TGI [24]: > 100 µM | TGI [25]: > 100 µM | TGI [26]: > 100 µM | TGI [27]: > 100 µM | TGI [28]: > 100 µM | TGI [29]: > 100 µM | TGI [30]: > 100 µM | TGI [31]: > 100 µM | TGI [32]: > 100 µM | TGI [33]: > 100 µM | TGI [34]: > 100 µM | TGI [35]: > 100 µM | TGI [36]: > 100 µM | TGI [37]: > 100 µM | TGI [38]: > 100 µM | TGI [39]: > 100 µM | TGI [40]: > 100 µM | TGI [41]: > 100 µM | TGI [42]: > 100 µM | TGI [43]: > 100 µM | TGI [44]: > 100 µM | TGI [45]: > 100 µM | TGI [46]: > 100 µM | TGI [47]: > 100 µM | TGI [48]: > 100 µM | TGI [49]: > 100 µM | TGI [50]: > 100 µM | TGI [51]: > 100 µM

CC1(C)CC2(S(=O)(=O)c3ccccc3)ON1CC2S(=O)(=O)c1ccccc1 (stereo not drawn)
TGI [1]: > 100 µM | TGI [3]: > 100 µM | TGI [4]: > 100 µM | TGI [5]: > 100 µM | TGI [6]: 89.9 µM | TGI [7]: > 100 µM | TGI [8]: > 100 µM | TGI [9]: > 100 µM | TGI [52]: > 100 µM | TGI [10]: > 100 µM | TGI [11]: > 100 µM | TGI [12]: > 100 µM | TGI [13]: > 100 µM | TGI [14]: 78.5 µM | TGI [15]: > 100 µM | TGI [17]: > 100 µM | TGI [18]: > 100 µM | TGI [19]: > 100 µM | TGI [20]: > 100 µM | TGI [21]: > 100 µM | TGI [22]: > 100 µM | TGI [23]: > 100 µM | TGI [24]: > 100 µM | TGI [25]: > 100 µM | TGI [26]: > 100 µM | TGI [27]: > 100 µM | TGI [28]: > 100 µM | TGI [29]: > 100 µM | TGI [30]: > 100 µM | TGI [53]: > 100 µM | TGI [31]: > 100 µM | TGI [54]: > 100 µM | TGI [32]: > 100 µM | TGI [33]: > 100 µM | TGI [34]: > 100 µM | TGI [35]: > 100 µM | TGI [36]: > 100 µM | TGI [37]: > 100 µM | TGI [38]: > 100 µM | TGI [39]: > 100 µM | TGI [40]: > 100 µM | TGI [42]: > 100 µM | TGI [43]: > 100 µM | TGI [55]: > 100 µM | TGI [44]: > 100 µM | TGI [56]: > 100 µM | TGI [46]: > 100 µM | TGI [47]: > 100 µM | TGI [48]: > 100 µM | TGI [49]: > 100 µM | TGI [50]: > 100 µM | TGI [51]: > 100 µM

From PubChem BioAssay (NCI)
